Assay results published in US20230157952A1, “METHOD FOR IMPROVING THE STABILITY OF A PHARMACEUTICAL COMPOSITION COMPRISING A HIGH PENETRATION DRUG, AND THE PHARMACEUTICAL COMPOSITION OBTAINED THEREFROM” (Techfields Inc., priority 2020, published 2023).
Each block holds one molecule with its values, some of them ahead of it.

Key:
[1] = Stability of the pure HPDs (dry solid) at 25° C./RH 60%; assay type: physicochemical; conditions: pure HPD, 25° C./RH 60%
[2] = Effect of solvent on the stability of the solution (purity at various pH values and temperature); assay type: physicochemical
[3] = Effect of concentration on the stability of the solution (purity over time); conditions: at 5° C. in 15% ethanol

Purity ([1]; 24 month): 98.0 ± 0.5
SMILES: Br.CCN(CC)CCOC(=O)[C@H](C)c1ccc(CC(C)C)cc1 (racemic) [C-1-4, 2-(diethylamino)ethyl (R,S)-2-(p-isobutylphenyl)propionate•HBr salt]

SMILES: CCN(CC)CCOC(=O)c1ccccc1OC(C)=O.Cl [2-(diethylamino)ethyl acetylsalicylate•HCl]
Stability of the solution at a temperature higher than 40° C. and a pH lower than 3 or greater than 6 ([2]; 7% solution in water): not stable
Effect of the solvent on the stability of the solution ([2]; 7% solution, 15% ethanol): did not affect the stability
Effect of the solvent on the stability of the solution ([2]; 7% solution, 25% ethanol): did not affect the stability
Effect of the solvent on the stability of the solution ([2]; 7% solution, 50% ethanol): did not affect the stability
Effect of the amount of ethanol on the stability of the solution ([2]; 7% solution, tables 51-54 (water, 15%, 25%, 50% ethanol)): did not affect the stability
Purity at day 0 ([3]; 0.01 wt %): 99.1%
Purity at day 3 ([3]; 0.01 wt %): 93.1%
Purity at day 7 ([3]; 0.01 wt %): 88.2%
Purity at day 14 ([3]; 0.01 wt %): 81.4%
Purity at day 21 ([3]; 0.01 wt %): 74.9%
Purity at day 28 ([3]; 0.01 wt %): 68.3%
Purity at day 60 ([3]; 0.01 wt %): 47.1%
Purity at day 90 ([3]; 0.01 wt %): 30.1%
Purity at day 0 ([3]; 0.1 wt %): 99.2%
Purity at day 3 ([3]; 0.1 wt %): 95.8%
Purity at day 7 ([3]; 0.1 wt %): 93.1%
Purity at day 14 ([3]; 0.1 wt %): 89.5%
Purity at day 21 ([3]; 0.1 wt %): 86.6%
Purity at day 28 ([3]; 0.1 wt %): 83.7%
Purity at day 60 ([3]; 0.1 wt %): 71.8%
Purity at day 90 ([3]; 0.1 wt %): 59.9%
Purity at day 0 ([3]; 1 wt %): 99.3%
Purity at day 3 ([3]; 1 wt %): 97.6%
Purity at day 7 ([3]; 1 wt %): 96.9%
Purity at day 14 ([3]; 1 wt %): 95.2%
Purity at day 21 ([3]; 1 wt %): 93.7%
Purity at day 28 ([3]; 1 wt %): 91.5%
Purity at day 60 ([3]; 1 wt %): 82.7%
Purity at day 90 ([3]; 1 wt %): 74.1%
Purity at day 0 ([3]; 3 wt %): 99.5%
Purity at day 14 ([3]; 3 wt %): 96.4%
Purity at day 21 ([3]; 3 wt %): 94.5%
Purity at day 28 ([3]; 3 wt %): 92.7%
Purity at day 60 ([3]; 3 wt %): 86.1%
Purity at day 90 ([3]; 3 wt %): 80.2%
Purity at day 0 ([3]; 5 wt %): 99.5%
Purity at day 3 ([3]; 5 wt %): 99.3%
Purity at day 7 ([3]; 5 wt %): 99.1%
Purity at day 60 ([3]; 5 wt %): 96.7%
Purity at day 90 ([3]; 5 wt %): 96.1%
Purity at day 0 ([3]; 7 wt %): 99.6%
Purity at day 3 ([3]; 7 wt %): 99.4%
Purity at day 7 ([3]; 7 wt %): 99.3%
Purity at day 14 ([3]; 7 wt %): 99.1%
Purity at day 90 ([3]; 7 wt %): 97.2%
Purity at day 0 ([3]; 8 wt %): 99.7%
Purity at day 3 ([3]; 8 wt %): 99.5%
Purity at day 7 ([3]; 8 wt %): 99.3%
Purity at day 14 ([3]; 8 wt %): 99.3%
Purity at day 90 ([3]; 8 wt %): 97.4%
Purity at day 0 ([3]; 10 wt %): 99.6%
Purity at day 3 ([3]; 10 wt %): 99.7%
Purity at day 7 ([3]; 10 wt %): 99.4%
Purity at day 14 ([3]; 10 wt %): 99.1%
Purity at day 90 ([3]; 10 wt %): 97.2%
Purity at day 0 ([3]; 15 wt %): 99.5%
Purity at day 3 ([3]; 15 wt %): 99.5%
Purity at day 7 ([3]; 15 wt %): 99.3%
Purity at day 14 ([3]; 15 wt %): 99.2%
Purity at day 90 ([3]; 15 wt %): 97.3%
Purity at day 0 ([3]; 20 wt %): 99.5%
Purity at day 3 ([3]; 20 wt %): 99.6%
Purity at day 7 ([3]; 20 wt %): 99.3%
Purity at day 14 ([3]; 20 wt %): 99.2%
Purity at day 90 ([3]; 20 wt %): 97.3%
Purity at day 0 ([3]; 30 wt %): 99.5%
Purity at day 3 ([3]; 30 wt %): 99.5%
Purity at day 7 ([3]; 30 wt %): 99.4%
Purity at day 14 ([3]; 30 wt %): 99.4%
Purity at day 90 ([3]; 30 wt %): 97.4%
Purity at day 0 ([3]; 50 wt %): 99.7%
Purity at day 3 ([3]; 50 wt %): 99.6%
Purity at day 7 ([3]; 50 wt %): 99.5%
Purity at day 14 ([3]; 50 wt %): 99.3%
Purity at day 21 ([3]; 50 wt %): 99.2%
Purity at day 90 ([3]; 50 wt %): 97.4%
Stability when the concentration is 0.1% or lower [3]: not stable

Purity ([1]; 24 month): 98.0 ± 0.1
Purity ([1]; Day 0): 98.6 ± 0.3
SMILES: CCN(CC)CCOC(=O)[C@@H](C)c1ccc2cc(OC)ccc2c1.Cl [A-1-2, 2-(diethylamino)ethyl (S)-2-(6-methoxy-2-naphthyl) propionate•HCl salt]

Purity ([1]; 18 month): 98.1 ± 0.2
Purity ([1]; 24 month): 97.9 ± 0.2
SMILES: CCN(CC)CCOC(=O)[C@H](C)c1ccc2cc(OC)ccc2c1.Cl [A-1-3, 2-(diethylamino)ethyl (R)-2-(6-methoxy-2-naphthyl) propionate•HCl salt]
